In patent publication EP0450515B1, “Haloethyl-substituted steroidal enzyme inhibitors” (MERRELL DOW PHARMACEUTICALS INC., priority 1990, dated 1991):

Target: T1, aromatase (Homo sapiens, UniProt P11511)
T1 construct: aromatase preparation, usually 50-800 »g of microsomal protein per ml of assay buffer; from tissue; host or cells: microsomes
T1 sequence (P11511 1-503): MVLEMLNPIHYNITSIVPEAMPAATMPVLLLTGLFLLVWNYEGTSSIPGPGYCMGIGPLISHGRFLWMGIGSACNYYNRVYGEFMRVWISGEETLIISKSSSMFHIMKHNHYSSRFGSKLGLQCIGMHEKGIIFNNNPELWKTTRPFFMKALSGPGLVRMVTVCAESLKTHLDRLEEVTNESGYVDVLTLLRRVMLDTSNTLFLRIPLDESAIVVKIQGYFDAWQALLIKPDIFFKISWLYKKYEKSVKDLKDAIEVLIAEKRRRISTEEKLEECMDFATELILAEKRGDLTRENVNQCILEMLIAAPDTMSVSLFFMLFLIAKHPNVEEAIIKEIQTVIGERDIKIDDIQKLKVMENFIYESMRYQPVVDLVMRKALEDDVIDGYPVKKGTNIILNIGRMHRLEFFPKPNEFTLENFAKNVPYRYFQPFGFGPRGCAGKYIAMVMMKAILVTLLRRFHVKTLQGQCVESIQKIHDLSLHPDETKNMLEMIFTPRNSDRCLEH
Experiment: time-dependent aromatase inhibition assay (preincubation of inhibitor with enzyme, Kitz-Wilson analysis)
Format: biochemical
Conditions: for τ50: half-time of inactivation at infinite inhibitor concentration, Kitz-Wilson plots, time-dependent assay; for kinact/KI: ratio of kcat/Ki (inactivation), index of efficiency of enzyme inactivation
Method: In this assay, the inhibitor is preincubated with enzyme prior to assaying for activity in the presence of high substrate levels. A time-related decrease in enzyme activity can be indicative of irreversible binding of the inhibitor with the enzyme.
In the time-dependent assay, an amount of the enzyme inhibitor in 100 »l of the assay buffer described above which will provide assay concentrations which are usually between 1 nM and 10 »M are added to 35 ml centrifuge tubes containing 600 »l of the NADPH generating system. The pre-incubation is started by the addition of 700 »l of aromatase preparation, usually 50-800 »g of microsomal protein per ml of assay buffer. These preparations are mixed using a vortex mixer and incubated for 0, 5, 10, or 20 minutes at 25°C. Then 100 »l of androstenedione (∼6.8 »M) containing 1β-³H androstenedione in assay buffer is added to provide an assay concentration of substrate (0.50 »M) which is at least ten times the Km of androstenedione (0.04 »M). Following vortexing, the enzyme incubation is continued for 10 minutes before being terminated by the addition of chloroform. The amount of radioactivity in the aqueous fraction is determined by scintillation procedures. The enzymatic activity for each concentration of inhibitor at each time period of preincubation is calculated as a percent of the respective vehicle control which is arbitrarily set at 100%. Therefore, the relative present enzyme inhibition is expressed as a percentage: (100 percent minus percent enzyme activity with inhibitor present).
Enzyme kinetic analysis utilized Kitz-Wilson plots for time-dependent assays. These analyses provide estimates of apparent Ki of inactivation which represents the inhibitor concentration required to produce half-maximal rate of enzyme inactivation. The pseudo first-order rate constant for enzyme inactivation (kcat) and the half-time of inactivation (τ₅₀) of infinite inhibitor concentrations were determined.

| Compound | Ki [nM] | τ50 [min] | kinact/KI [M⁻¹ s⁻¹] |
| --- | --- | --- | --- |
| C[C@]12CC[C@H]3[C@@H](CCC4=CC(=O)CC[C@@]43C(=O)CBr)[C@@H]1CCC2=O [O=CCH₂Br, 10-(2-Bromoacetyl)-estr-4-ene-3,17-dione] | 190 | 32.7 | 1860 |
| C[C@]12CC[C@H]3[C@@H](CCC4=CC(=O)CC[C@@]43C(O)CCl)[C@@H]1CCC2=O (stereo partly drawn) [HOCHCH₂Cl (R):(S)::9:1, 10-(2-Chloro-1-hydroxyethyl)-estr-4-ene-3,17-dione] | 63 | 3.60 | 50700 |
| C[C@]12CC[C@H]3[C@@H](CCC4=CC(=O)CC[C@@]43C(O)CBr)[C@@H]1CCC2=O (single isomer, unassigned; diastereomer 10) [HOCHCH₂Br pure (R) diastereomer, 10-(2-Bromo-1-hydroxyethyl)-estr-4-ene-3,17-dione] | 26 | 4.85 |  |
| C[C@]12CC[C@H]3[C@@H](CCC4=CC(=O)CC[C@@]43C(O)CBr)[C@@H]1CCC2=O (stereo partly drawn) [HOCHCH₂Br (S):(R)::9:1, 10-(2-Bromo-1-hydroxyethyl)-estr-4-ene-3,17-dione] | 1130 | 5.33 |  |
| C[C@]12CC[C@H]3[C@@H](CCC4=CC(=O)CC[C@@]43C(O)CI)[C@@H]1CCC2=O (stereo partly drawn) [HOCHCH₂I (R):(S)::9:1, 10-(2-Iodo-1-hydroxyethyl)-estr-4-ene-3,17-dione] | 11 | 2.22 | 490000 |
